# Measured values reported in patent publication US10493048B2 (Neurocentria, Inc., priority 2015, dated 2019).
# Tests used:
# hNSC-derived neurons = system: hNSC-derived neurons
# Method: Human fetal cortices-derived neural stem cells (hNSC; Angecon, China) were cultured in hNSC medium (Angecon) according to guidelines provided by Angecon. hNSCs were maintained in this medium for 10-14 days, passaged using Accutase (Invitrogen), washed and replated at a dilution of 1:3 to 1:5.
# A previously described differentiation protocol was used to differentiate hNSCs to neurons. Briefly, hNSC cultures were dissociated into single cells with Accutase, and then plated on polyornithine/laminin (Sigma)-coated 6-well plates at 50,000 cells per cm^2 in neural maintenance medium with EGF (Invitrogen) and FGF2 (Pepro Tech) at a concentration of 10 ng ml^−1. Neural maintenance medium consists of a 1:1 mixture of DMEM/F12 and Neurobasal medium (Invitrogen), 1×N2 (Invitrogen), 1×B27 (Invitrogen), 1 mM L-glutamine, 0.1 mM non-essential amino acids, 5 μg ml^−1 insulin, 0.1 mM 2-mercaptoethanol, 25 U ml^−1 penicillin and […] streptomycin. […] Neurons were maintained 10-14 days in this medium; medium was replaced every day. When neuroepithelial cells appeared, Dispase (Roche) was used to collect cells. They were replated in neural maintenance medium with EGF and FGF2 at 20 ng ml^−1 for 2-4 days, then changed to neural maintenance medium and cultured for up to 80 days, replacing medium every other day.
# (§1) Proteins were transferred to PVDF membranes (Millipore), probed with primary antibodies against Synaptophysin (Millipore), RIM1 and Rab3a (Synaptic System), PSD-95, NR2B, β-tubulin and/or β-actin (all from Cell Signaling Technology) and then followed by an appropriate HRP-coupled secondary antibody (Cell Signaling Technology). The signals were detected by ECL detection reagent (GE Healthcare) and captured on autoradiography film (Kodak). For quantification of protein signals, the integrated optical density (IOD) was measured with IPP, and β-tubulin or β-actin on the same lane served as loading controls.
# hippocampal neurons [1] = test: Functional terminal density by FM1-43 imaging
# Method: (§3) Neurons were plated onto Matrigel® (BD)-coated 8×8 mm coverslips or 6-well cell plates (Corning).
# Background FM, determined by imaging after unloading of FM dye following 480 APs at 2 Hz, was subtracted from the physiological action potential image. Terminals containing detectable amount of FM after subtraction were considered to be functional.
# FM 1-43+ puncta number per μm^2 of dendrite was used to estimate functional presynaptic terminal density.
# [2] = system: cultured rat hippocampal neurons; test: Intracellular free Mg2+ analysis (Magnesium Green) in hippocampal neuron cultures
# Method: as §3
# [Mg^2+]i was determined by using Magnesium Green™ (MgGreen, Invitrogen).
# Where F(a.u.) is the mean fluorescent density (arbitrary units) in the branch of interest which was quantified by using Image-Pro Plus software (IPP, Media Cybernetics, Carlsbad, Calif.), and Ddiameter is the mean width of the same selected branch in DIC image.
# hippocampal neurons [3] = conditions: threonate (150 M) for 2 days, 0.6 Mg, p<0.01
# Source text: Mitochondrial transmembrane potential (Δψm) of hippocampal neurons was observed microscopically (Olympus IX-70) by using 5,5′,6,6′-tetrachloro-1,1′,3,3′-tetraethylbenzimidazolylcarbocyanine iodide (JC-1, Invitrogen). The monomeric form of JC-1 has an emission maximum at 529 nm. At higher concentrations or potentials the dye forms red fluorescent J-aggregates with an emission maximum of 590 nm. The ratio of J-aggregate/J-monomer is used as an estimate of Δψm.
# hippocampal neurons [4] = conditions: threonate 0-150 μM, 2 days
# Method: (§2) For chemical structure see supplemental FIG. 1.
# Neuronal cultures were washed three times in 0.01 M PBS followed by fixation for 20 min in 4% paraformaldehyde at 4° C. The neuronal culture coverslips were then washed in PBS before incubation in blocking solution containing 0.1% Triton X-100 and 1% bovine serum albumin for 30 min at room temperature. […] Finally, neurons were mounted onto slides with anti-fade fluorescent mounting medium (Vector Laboratories) and stored at 4° C. for 2 days.
# Cultures were imaged with a confocal laser inverted microscope (Olympus IX-70) equipped with a 60× (NA 1.2) objective. […] The density of synaptophysin (Syn) and PSD-95 was estimated from images by analyzing with IPP. The puncta of Syn and PSD-95, localized at the dendrites labeled by the neuronal marker MAP2, were counted manually. To determine the density of Syn and PSD-95 colocalization, we aligned two sets of images and resulting yellow clusters (Syn: red; PSD-95: green) localized at dendritic were quantified. Fluorescence spots (red and green) having a diameter between 0.1 and 0.6 μm were classified.
# hippocampal neurons [5] = conditions: threonate 0-150 μM, 2 days; remark: listed apart in the source
# Source text: as §2, §1
# [6] = human neurons treated at day 90, dose-dependent, up to 400 μM
# [7] = threonate 150 μM, time course 0-36 hr
smiles,measurement,setting,value
"O=C(O)[C@H](O)[C@@H](O)CO [threonate, (2R,3S)-2,3,4-trihydroxybutanoate]",threonate dose response curve in human neurons compared to the rat dose response curve,hNSC-derived neurons; effects continued to increase even at 400 μM,shifted toward a higher concentration
same,PSD-95 expression (Western blot),hNSC-derived neurons; [6],significantly increased
same,Syn expression (Western blot),hNSC-derived neurons; [6],significantly increased
same,effect on functional terminal density in the presence of CB,"hippocampal neurons [1]; threonate 150 μM, 4 hr, with cytochalasin B",unable to elevate
same,increase of functional terminal density relative to control in the presence of phloretin,"hippocampal neurons [1]; threonate 150 μM, 4 hr, with phloretin, p<0.001",20.4%
same,"number of functional terminals, dose dependence","hippocampal neurons [1]; threonate 50-150 μM, 2 days, extracellular [Mg2+] 0.6, 0.8 or 1.2 mM",increased in threonate-treated neurons in a dose-dependent manner
same,effect on functional terminal density at reduced extracellular [Mg2+],"hippocampal neurons [1]; threonate 4 hr, 0.1 mM extracellular [Mg2+]",prevented threonate from increasing functional terminal density
same,increase of functional terminal density,"hippocampal neurons [1]; threonate (150 M) for 4 hr, 0.6 mM extracellular [Mg2+] (Example 5)",23%
same,threonate-mediated increase of intracellular [Mg2+] in the presence of CB,"[2]; 4 hr, with cytochalasin B (GLUTs inhibitor)",prevented
same,increase of intracellular [Mg2+] in the presence of phloretin,"[2]; 4 hr, with phloretin (SVCT2 inhibitor), p<0.0001",23.5%
same,threonate concentration that induced the largest change in intracellular [Mg2+],"[2]; 2 day treatment, 0-200 μM tested",150 µM
same,effect on intracellular [Mg2+],"[2]; 2 day treatment, threonate 0-200 μM, extracellular [Mg2+] 0.6, 0.8 or 1.2 mM",increase of intracellular [Mg^2+] in a dosage-dependent manner
same,effect on intracellular [Mg2+] at reduced extracellular [Mg2+],"[2]; threonate 150 μM, 4 hr, 0.1 mM extracellular [Mg2+]",no longer induced elevation
same,increase of intracellular [Mg2+],"[2]; threonate 150 μM, 4 hr, 0.6 mM extracellular [Mg2+] (Example 3)",~27%
same,persistence of the intracellular [Mg2+] increase,[2]; [7],persisted for the entire course of the experiment
same,time at which effect on intracellular [Mg2+] was maximal,[2]; [7],2 h
same,increase of intracellular [Mg2+],"[2]; threonate (150 mM), 4 hr, 0.6 mM [Mg2+]o (Example 7), p<0.0001",29.6%
same,increase of mitochondrial membrane potential ΔΨm (JC-1 aggregate/monomer ratio),hippocampal neurons [3],49.6%
same,colocalization of Syn/PSD-95,hippocampal neurons [4],significantly upregulated
same,density of PSD-95 puncta,hippocampal neurons [4],significantly upregulated
same,density of Syn puncta,hippocampal neurons [4],significantly upregulated
same,NR2B-containing NMDAR expression (Western blot),hippocampal neurons [5],significantly upregulated
same,PSD-95 expression (Western blot),hippocampal neurons [5],significantly increased
same,RIM1 expression (Western blot),hippocampal neurons [5],significantly increased
same,Rab3a expression (Western blot),hippocampal neurons [5],significantly increased
same,Syn expression (Western blot),hippocampal neurons [5],significantly increased
"NCC(=O)O [glycinate, reference compound]","effect on functional terminal density, comparison of anions",hippocampal neurons [1],no significant effects
same,"ability to increase intracellular [Mg2+], comparison of anions",[2],threonate was the only one able to increase
"C=C1[C@@H](C)[C@H]2[C@H](Cc3ccccc3)NC(=O)[C@]23OC(=O)/C=C/[C@H](O)CCC[C@@H](C)C/C=C/[C@H]3[C@@H]1O [CB, cytochalasin B, reference compound]","density of functional terminals relative to control, inhibitor alone","hippocampal neurons [1]; 4 hr, without threonate",did not affect
same,"intracellular [Mg2+] relative to control, inhibitor alone","[2]; 4 hr, without threonate",did not alter
"O=C(CCc1ccc(O)cc1)c1c(O)cc(O)cc1O [phloretin, reference compound]","decrease of functional terminal density, inhibitor alone","hippocampal neurons [1]; 4 hr, without threonate, p<0.05",10.5%
same,"decrease of intracellular [Mg2+] relative to placebo, inhibitor alone","[2]; 4 hr, without threonate, p<0.01",10.4%
